The nature of assay [1]: Antiproliferative activity against human HCT116 cells by MTT assay. Format: functional, cell-based. The following applies: HCT-116.
For assay [2], the system named is HepG2. Briefly: Antiproliferative activity against human HepG2 cells by MTT assay. Format: functional, cell-based.
Assay [3] in a line: Antiproliferative activity against human PC3 cells by MTT assay. Format: functional, cell-based. The following applies: PC-3.
The subject of assay [4] is MDA-MB-231. Briefly: Antiproliferative activity against human MDA-MB-231 cells by MTT assay. Format: functional, cell-based.
Assay [5] relates to HUVEC. Nature of the assay: Anti-angiogenic activity in human HUVEC assessed as inhibition of tube formation at 0.1 uM by matrigel assay. Format: functional, cell-based.
In assay [6] the test system is HUVEC. Briefly: Anti-angiogenic activity in human HUVEC assessed as inhibition of tube formation at 0.05 uM by matrigel assay. Format: functional, cell-based.
The test system of assay [7] is Thoracic aorta. Briefly: Ex-vivo anti-angiogenic activity in Sprague-Dawley rat thoracic aorta ring assessed as sprouting at 0.05 to 0.1 uM after 6 days. Format: functional, tissue-based.

The source made the active and inactive calls. The rule behind the calls is not given here.

For `CNC(=O)c1ccc(Oc2cccc(NC(=S)Nc3ccc(C)cc3)c2)nc1`, the IC50 in assay [1] is 53.7 µM; in assay [2], 65.4 µM; in assay [3] it was more than 100 µM; in assay [4] it was 29.5 µM.
In the same order, the values of `CNC(=O)c1ccc(Oc2cccc(NC(=S)Nc3ccc(F)cc3)c2)nc1` are 39.4 µM, 42.5 µM, 32.7 µM and 21.7 µM.
For the compound `CNC(=O)c1ccc(Oc2cccc(NC(=S)Nc3ccc(Cl)cc3Cl)c2)nc1`, the IC50 in assay [1] was determined as 20.9 µM; in assay [2] it was 21.6 µM; in assay [3], 19.3 µM; in assay [4] it was 20.7 µM.
In the case of `CNC(=O)c1ccc(Oc2cccc(NC(=S)Nc3cccc(C(F)(F)F)c3)c2)nc1`, the IC50 in assay [1] was 36.6 µM; in assay [2], 23.3 µM; in assay [3], 15.4 µM; in assay [4], 38.1 µM.
Consider `CNC(=O)c1ccc(Oc2cccc(NC(=S)Nc3ccc(C)c(C)c3)c2)nc1`, for which the IC50 in assay [1] was 48.2 µM; in assay [2] it was more than 100 µM; in assay [3], 67.4 µM; in assay [4], 38.6 µM.
Take `CNC(=O)c1ccc(Oc2cccc(NC(=S)Nc3ccc(F)c(Cl)c3)c2)nc1`: the IC50 in assay [1] is 25.4 µM; in assay [2], more than 100 µM; in assay [3], 18.4 µM; in assay [4], 28.6 µM.
As to `CNC(=O)c1ccc(Oc2cccc(NC(=S)Nc3ccc(F)c(C(F)(F)F)c3)c2)nc1`, the concentration for half-maximal inhibition (IC50) in assay [1] is 19 µM; in assay [2] it was 20.2 µM; in assay [3], 7.95 µM; in assay [4], 13.3 µM.
`CNC(=O)c1cc(Oc2ccc(NC(=O)Nc3ccc(Cl)c(C(F)(F)F)c3)cc2)ccn1` [SORAFENIB]: the IC50 in assay [1] is 8.41 µM; in assay [2], 10.5 µM; in assay [3], 11 µM; in assay [4], 17.8 µM. The inhibition result in assay [5] and in assay [6] was “Active” throughout.
Turning to `CNC(=O)c1cc(Oc2cccc(NC(=S)Nc3ccc(Cl)c(C(F)(F)F)c3)c2)ccn1`, the IC50 in assay [1] was 14.6 µM; in assay [2] it was 24.9 µM; in assay [3], 16.4 µM; in assay [4], 42.4 µM.
Take `CNC(=O)c1ccc(Oc2cccc(NC(=S)Nc3ccc(F)c(F)c3)c2)nc1`: the IC50 stood at 38.2 µM in assay [1], 26.7 µM in assay [2], 23.1 µM in assay [3] and 69.3 µM in assay [4].
On to `CNC(=O)c1ccc(Oc2cccc(NC(=S)Nc3ccc(Br)c(C(F)(F)F)c3)c2)nc1`, for which the IC50 in assay [1] worked out at 3.12 µM; in assay [2] it was 8.53 µM; in assay [3], 2.67 µM; in assay [4], 3.02 µM.
For `CNC(=O)c1ccc(Oc2cccc(NC(=S)Nc3ccc(OC(F)(F)F)cc3)c2)nc1`, the IC50 in assay [1] is 54.7 µM; in assay [2], more than 100 µM; in assay [3], more than 100 µM; in assay [4], 56 µM.
As to `CNC(=O)c1ccc(Oc2cccc(NC(=S)Nc3ccc(OC)cc3)c2)nc1`, the 50% inhibitory concentration (IC50) in assay [1] is 49.8 µM; in assay [2], 85.3 µM; in assay [3] it was more than 100 µM; in assay [4] it was 31.5 µM.
In the same order, the values of `CNC(=O)c1ccc(Oc2cccc(NC(=S)Nc3ccc(Cl)cc3)c2)nc1` are 42.5 µM, 29.4 µM, 28.4 µM and 66.5 µM.
In the case of `CNC(=O)c1ccc(Oc2cccc(NC(=S)Nc3cc(C(F)(F)F)cc(C(F)(F)F)c3)c2)nc1`, the IC50 was 2.5 µM in assay [1], 4.55 µM in assay [2], 5.86 µM in assay [3] and 2.67 µM in assay [4]. The inhibition entry in assay [6] and in assay [7] was “Active” in each case.
For the compound `CNC(=O)c1ccc(Oc2cccc(NC(=S)Nc3ccc(Cl)c(C(F)(F)F)c3)c2)nc1`, the IC50 in assay [1] is 2.21 µM; in assay [2], 5.35 µM; in assay [3] it was 1.98 µM; in assay [4], 2.33 µM. Besides, the inhibition entry in assay [6] and in assay [7] was “Active” throughout.
